{"source": "the Bradley open melting point set (2014)", "note": "“And” between values parts separate entries of the source, which are not always exact repeats. Equal values may be shown once.", "data": [{"values": [{"smiles": "O=C(/C=C/c1ccccc1[N+](=O)[O-])c1cccc(O)c1", "note": "[(2E)-1-(3-Hydroxyphenyl)-3-(2-nitrophenyl)-2-propen-1-one]", "melting point": "188 °C"}, {"smiles": "Cc1cc(Cl)ccc1O", "note": "[4-chloro-2-methylphenol]", "melting point": "47 °C"}, {"smiles": "CC(C)(C)O", "note": "[tert-butyl alcohol, anhydrous]", "melting point": "25 °C"}, {"smiles": "COC(=O)c1ccc(C)cc1", "note": "[methyl_4-methylbenzoate]", "melting point": "37 °C"}, {"smiles": "C#CCN1C(=O)c2ccccc2C1=O", "note": "[N-propargylphthalimide]", "melting point": "150 °C"}, {"smiles": "CCc1ccc2ccccc2c1", "note": "[2-ethylnaphthalene]", "melting point": "-7.35 °C"}, {"smiles": "O=Cc1ccc(O)c(O)c1O", "note": "[2,3,4-trihydroxybenzaldehyde]", "melting point": "161 °C"}, {"smiles": "CNC[C@H](O)c1cccc(O)c1", "note": "[Phenylephrine]", "melting point": "142 °C"}, {"smiles": "Cc1ccc(Cl)c(Cl)c1", "note": "[3,4-dichlorotoluene]", "melting point": "-15 °C"}, {"smiles": "N=C(N)N", "note": "[Guanidine]", "melting point": "50 °C"}, {"smiles": "CCOC(=O)Cc1ccc(N)cc1", "note": "[ethyl 4-aminophenylacetate]", "melting point": "47 °C"}, {"smiles": "Cn1cc([N+](=O)[O-])c(O)nc1=O", "note": "[1-Methyl-5-nitropyrimidine-2,4(1H,3H)-dione]", "melting point": "269 °C"}, {"smiles": "CCCSCCC", "note": "[di-n-propyl sulfide]", "melting point": "-102 °C"}, {"smiles": "COc1ccccc1OCC(O)CO", "note": "(stereo unspecified) [3-(2-methoxyphenoxy)-1,2-propanediol]", "melting point": "81 °C"}, {"smiles": "C=CCCCCCCCCCCCC", "note": "[Tetradec-1-ene]", "melting point": "-13 °C"}, {"smiles": "Cc1ccc(C=O)cc1", "note": "[p-tolualdehyde]", "melting point": "-6 °C"}, {"smiles": "CN(C)c1ccc(C(C(=O)NC(C)(C)C)N(C)C(=O)CCCc2ccc3ccc4cccc5ccc2c3c45)cc1", "note": "(stereo unspecified) [Ugi product 171K (UC)]", "melting point": "194 °C"}, {"smiles": "CCCCCCCCCCCCCCCCC1CO1", "note": "(stereo unspecified) [2-Hexadecyloxirane]", "melting point": "26 °C"}, {"smiles": "COC(=O)CCC(=O)OC", "note": "[dimethyl succinate]", "melting point": "19 °C"}, {"smiles": "CC#CCCC", "note": "[2-hexyne]", "melting point": "-90 °C"}, {"smiles": "N=C(NCCCCCCNC(=N)NC(=N)Nc1ccc(Cl)cc1)NC(=N)Nc1ccc(Cl)cc1", "note": "[Chlorhexidine]", "melting point": "134 °C"}, {"smiles": "CC(=O)N(C)c1ccc(Cl)cc1Cl", "note": "[2',4'-dichloro-n-methylacetanilide]", "melting point": "87 °C"}, {"smiles": "COc1ccccc1OC", "note": "[o-dimethoxybenzene]", "melting point": "15 °C"}, {"smiles": "COc1ccc(-c2csc(C(C#N)=Cc3ccco3)n2)cc1", "melting point": "116 °C"}, {"smiles": "COc1ccc(C(=O)/C=C/c2ccc(-c3ccccc3OC)o2)cc1OC", "melting point": "145 °C"}, {"smiles": "CN1C(=O)c2ccccc2C1C1=COCCC1", "note": "(stereo unspecified) [3-(3,4-Dihydro-2H-pyran-5-yl)-2-methylisoindolin-1-one]", "melting point": "95.5 °C"}, {"smiles": "C[C@@H](NC(=O)OC(C)(C)C)C(=O)O", "note": "[N-boc-D-alanine]", "melting point": "83 °C"}, {"smiles": "Cc1ccc(C)c(/C=C/C(=O)O)c1", "note": "[2,5-dimethylcinnamic acid]", "melting point": "130 °C"}, {"smiles": "CC1=NS(=O)(=O)c2cc(Cl)ccc2N1", "note": "[Diazoxide]", "melting point": "330 °C"}, {"smiles": "Cn1c(=O)c2c(ncn2C)n(C)c1=O", "note": "[Caffeine]", "melting point": "236 °C"}, {"smiles": "Cc1ccc(N)c([N+](=O)[O-])c1", "note": "[4-Methyl-2-nitroaniline]", "melting point": "117 °C"}, {"smiles": "Nc1ccc([N+](=O)[O-])cc1", "note": "[4-nitroaniline]", "melting point": "148 °C"}, {"smiles": "CC1(C)S[C@@H]2[C@H](NC(=O)[C@H](N)c3ccccc3)C(=O)N2[C@H]1C(=O)O", "note": "[ampicillin]", "melting point": "200 °C"}, {"smiles": "O=C(O)CCSc1ccc2ccccc2c1", "note": "[3-(2-naphthylthio)propionic acid]", "melting point": "105 °C"}, {"smiles": "C#CCOc1c(Cl)cccc1Cl", "note": "[3-(2,6-dichlorophenoxy)-1-propyne]", "melting point": "44 °C"}, {"smiles": "COc1ccc(C(=O)c2ccccc2Cl)cc1OC", "note": "[methanone, (2-chlorophenyl)(3,4-dimethoxyphenyl)-]", "melting point": "126 °C"}, {"smiles": "Cc1ccc(C(=O)O)cc1", "note": "[4-methylbenzoic acid]", "melting point": "180 °C and 181 °C"}, {"smiles": "CCCCCCCCCCCCCCCCCCC", "note": "[Nonadecane]", "melting point": "33 °C"}, {"smiles": "O=[N+]([O-])c1ccc(CBr)cc1", "note": "[4-nitrobenzyl bromide]", "melting point": "99 °C"}, {"smiles": "Oc1ccccc1", "note": "[phenol]", "melting point": "41 °C (3×) and 42 °C"}, {"smiles": "CCCN(CCC)S(=O)(=O)c1ccc(C(=O)O)cc1", "note": "[Probenecid]", "melting point": "195 °C"}, {"smiles": "CC12CCC3C(CCC4CCCCC43C)C1CC(=O)C2", "note": "(stereo unspecified) [androstan-16-one]", "melting point": "108 °C"}, {"smiles": "Cc1ccc(Cl)cc1", "note": "[4-chlorotoluene]", "melting point": "8 °C"}, {"smiles": "COC(=O)CC(C)=O", "note": "[methyl_acetoacetate]", "melting point": "-80 °C"}, {"smiles": "CC(=O)NS(=O)(=O)c1ccc(N)cc1", "note": "[sulfacetamide]", "melting point": "183 °C"}, {"smiles": "Oc1ccc(Nc2ccccc2)cc1", "note": "[4-hydroxydiphenylamine]", "melting point": "69 °C"}, {"smiles": "Nc1ccc(C(F)(F)F)cc1", "note": "[4-(trifluoromethyl)aniline]", "melting point": "7 °C"}, {"smiles": "CC(Cc1ccccc1)NCCC(c1ccccc1)c1ccccc1", "note": "(stereo unspecified) [Prenylamine]", "melting point": "36.5 °C"}, {"smiles": "N#C/C(=N/Nc1cc(Cl)ccc1Cl)c1nc(-c2ccccc2)cs1", "melting point": "134 °C"}, {"smiles": "C=CCc1cc(OC)c(O)c(C(=O)NCCO)c1", "note": "[alibendol]", "melting point": "95 °C"}, {"smiles": "CC(C)(C)C(=O)Nc1ccncc1", "note": "[4-(2,2,2-trimethylacetamido)pyridine]", "melting point": "136 °C"}, {"smiles": "O=C1OC(=O)[C@H]2[C@@H]1[C@@H]1C=C[C@H]2O1", "note": "[exo-7-oxabicyclo[2.2.1]hept-5-ene-2,3-dicarboxylic anhydride]", "melting point": "119 °C"}, {"smiles": "CCOc1ccc(C(C)=O)cc1", "note": "[p-ethoxyacetophenone]", "melting point": "39 °C"}, {"smiles": "CON(/C=C1\\C(=O)C2(C)CCC1C2(C)C)c1ccccc1", "note": "(stereo unspecified)", "melting point": "76 °C"}, {"smiles": "COC(=O)c1cc(C)n(CN(Cn2nc(C(=O)OC)cc2C)c2ccccc2)n1", "melting point": "125 °C"}, {"smiles": "O=C1OC(=O)c2c(Cl)c(Cl)c(Cl)c(Cl)c21", "note": "[4,5,6,7-Tetrachloro-2-benzofuran-1,3-dione]", "melting point": "256 °C"}, {"smiles": "COC1=CC(=O)C[C@@H](C)[C@]12Oc1c(Cl)c(OC)cc(OC)c1C2=O", "note": "[griseofulvin]", "melting point": "219 °C"}, {"smiles": "Nc1ccc(C(=O)O)c(O)c1", "note": "[Aminosalicylic Acid]", "melting point": "150 °C"}, {"smiles": "CC(=O)CCc1oc2ccc(NC(C)=O)cc2c1-c1ccc(C)o1", "melting point": "132 °C"}, {"smiles": "CCCCCc1ccc(O)cc1", "note": "[4-n-pentylphenol]", "melting point": "24 °C"}, {"smiles": "Brc1ccccc1-c1nnn[nH]1", "note": "[5-(2-bromophenyl)-1h-tetrazole]", "melting point": "182 °C"}, {"smiles": "CC(=O)Oc1ccc([N+](=O)[O-])cc1", "note": "[4-nitrophenyl acetate]", "melting point": "78 °C"}, {"smiles": "Nc1c(Br)cc(Br)c(Cl)c1Cl", "note": "[4,6-dibromo-2,3-dichloroaniline]", "melting point": "97 °C"}, {"smiles": "O=S1(=O)CCCO1", "note": "[1,2-Oxathiolane 2,2-dioxide]", "melting point": "32 °C"}, {"smiles": "CC(=O)Cl", "note": "[acetyl chloride]", "melting point": "-112 °C"}, {"smiles": "Nc1ccc(CO)cc1", "note": "[p-amino_benzyl_alcohol]", "melting point": "75 °C"}, {"smiles": "Nc1ncccc1O", "note": "[2-amino-3-hydroxypyridine]", "melting point": "170 °C"}, {"smiles": "CC1=NC2=CCC=CC2=C1C#N", "note": "[2-methyl-1H-indole-3-carbonitrile]", "melting point": "213 °C"}, {"smiles": "O=C(C1CCCCC1)N1CC(=O)N2CCc3ccccc3C2C1", "note": "(stereo unspecified) [praziquantel]", "melting point": "136 °C"}, {"smiles": "O=C(c1ccccc1)c1ccccc1Cl", "note": "[2-chlorobenzophenone]", "melting point": "46 °C"}, {"smiles": "O=c1c2ccccc2sc2ccccc12", "note": "[9H-Thioxanthen-9-one]", "melting point": "209 °C"}, {"smiles": "CCI", "note": "[iodoethane]", "melting point": "-108 °C"}, {"smiles": "NC(=O)c1ccccc1", "note": "[Benzamide]", "melting point": "127 °C"}, {"smiles": "COC(N)=O", "note": "[methyl carbamate]", "melting point": "55 °C"}, {"smiles": "C=C(C#N)C(=O)OCC", "note": "[Ethyl 2-cyanoacrylate]", "melting point": "-22 °C"}, {"smiles": "COC(=O)C1=C(C)NC(C)=C(C(=O)OC)C1c1ccccc1[N+](=O)[O-]", "note": "[Nifedipine]", "melting point": "173 °C"}, {"smiles": "O=C(O)/C=C/c1cccc(OC(F)(F)F)c1", "note": "[3-(trifluoromethoxy)cinnamic acid]", "melting point": "94 °C"}, {"smiles": "O=c1[nH]c2ccccc2n1C1CCN(CCCC(c2ccc(F)cc2)c2ccc(F)cc2)CC1", "note": "[Pimozide]", "melting point": "216 °C"}, {"smiles": "C#CCCCC", "note": "[1-hexyne]", "melting point": "-132 °C"}, {"smiles": "O=C(O)c1ccc(Cl)c(Cl)c1", "note": "[3,4-dichlorobenzoic_acid]", "melting point": "208 °C"}, {"smiles": "Clc1cc(Cl)c(-c2cc(Cl)c(Cl)c(Cl)c2Cl)cc1Cl", "note": "[PCB-180]", "melting point": "112 °C"}, {"smiles": "COc1cc(Cl)cc(Cl)c1", "note": "[3,5-dichloroanisole]", "melting point": "41 °C"}, {"smiles": "CC(=O)C1=CCC2(C)C(CCC3C4CCC(=O)C4(C)CCC32)C1", "note": "(stereo unspecified) [3-acetylandrost-2-en-17-one]", "melting point": "153 °C"}, {"smiles": "C=C(C)C1CC=C(C)/C(=N/O)C1", "note": "(stereo unspecified) [(1E)-5-Isopropenyl-2-methyl-2-cyclohexen-1-one oxime]", "melting point": "72 °C"}, {"smiles": "CCCCCCCC(C)=O", "note": "[2-nonanone]", "melting point": "-8 °C"}, {"smiles": "NC(=O)c1ccc(-c2ccccc2)cc1", "note": "[biphenyl-4-carboxamide]", "melting point": "228 °C"}, {"smiles": "NC(=S)Nc1cccc2ccccc12", "note": "[N-(1-naphthyl)thiourea]", "melting point": "188 °C"}, {"smiles": "CNc1ccccc1", "note": "[N-methylaniline]", "melting point": "-57 °C"}, {"smiles": "Nc1n[nH]cc1Br", "note": "[3-amino-4-bromo-1h-pyrazole]", "melting point": "136 °C"}, {"smiles": "O=C(O)CS(=O)(=O)c1ccccc1", "note": "[(phenylsulfonyl)acetic acid]", "melting point": "112 °C"}, {"smiles": "O=[N+]([O-])c1ccc(F)cc1", "note": "[1-fluoro-4-nitrobenzene]", "melting point": "23 °C"}, {"smiles": "O=C(O)Cc1cccc(F)c1", "note": "[3-fluorophenylacetic acid]", "melting point": "46 °C"}, {"smiles": "Cc1ccccc1C1(C#N)Cc2ccccc2C(=O)O1", "note": "(stereo unspecified)", "melting point": "122 °C"}, {"smiles": "O=C1CN=C(c2ccccc2Cl)c2cc([N+](=O)[O-])ccc2N1", "note": "[Clonazepam]", "melting point": "238 °C"}, {"smiles": "O=C(CO)[C@@]3(O)CC[C@H]2[C@@H]4CC\\C1=C\\C(=O)CC[C@]1(C)[C@H]4C(=O)C[C@@]23C", "note": "[cortisone]", "melting point": "222 °C and 226 °C (2×)"}, {"smiles": "Cc1c2ccccc2cc2ccccc12", "note": "[9-Methylanthracene]", "melting point": "78 °C"}, {"smiles": "CCOC(=O)CC(=O)OCC", "note": "[Diethyl malonate]", "melting point": "-50 °C"}, {"smiles": "Cc1ncc([N+](=O)[O-])n1CCO", "note": "[Metronidazole]", "melting point": "160 °C"}, {"smiles": "O=C(O)c1cc(Cl)cc([N+](=O)[O-])c1Cl", "note": "[2,5-dichloro-3-nitrobenzoic acid]", "melting point": "220 °C"}, {"smiles": "O=[N+]([O-])c1ccc(Nc2ccccc2)c([N+](=O)[O-])c1", "note": "[2,4-Dinitro-N-phenylaniline]", "melting point": "160 °C"}, {"smiles": "O=[N+]([O-])c1cccc(O)c1", "note": "[3-nitrophenol]", "melting point": "96 °C"}]}]}
